Reference: patent US20090137572A1, “2-substituted-4-heteroaryl-pyrimidines useful for the treatment of proliferative disorders” (priority 2004, published 2009)

Experiments:
Type in all cases: biochemical
CDK7/cyclin H = CDK7/cyclin H (Homo sapiens, UniProt P50613); assay: CDK 7 assay (CTD peptide substrate); conditions: read-out: Kinase Inhibition pIC50 CDK7-cyclin H (converted)
Experimental: (§1) Kinase assays. The compounds of the invention above were investigated for their ability to inhibit the enzymatic activity of various protein kinases (Table 2). This was achieved by measurement of incorporation of radioactive phosphate from ATP into appropriate polypeptide substrates. Recombinant protein kinases and kinase complexes were produced or obtained commercially. Assays were performed using 96-well plates and appropriate assay buffers (typically 25 mM β-glycerophosphate, 20 mM MOPS, 5 mM EGTA, 1 mM DTT, 1 mM […], pH 7.4), into which were added 2-4 μg of active enzyme with appropriate substrates. The reactions were initiated by addition of Mg/ATP mix (15 mM MgCl2+100 μM ATP with 30-50 kBq per well of [γ-^32P]-ATP) and mixtures incubated as required at 30° C. Reactions were stopped on ice, followed by filtration through p81 filterplates or GF/C filterplates (Whatman Polyfiltronics, Kent, UK). After washing 3 times with 75 mM aq orthophosphoric acid, plates were dried, scintillant added and incorporated radioactivity measured in a scintillation counter (TopCount, Packard Instruments, Pangbourne, Berks, UK). Compounds for kinase assay were made up as 10 mM stocks in DMSO and diluted into 10% DMSO in assay buffer.
(§2) CDK 7 and 9 assays. CTD peptide substrate (biotinyl-Abx-(Tyr-Ser-Pro-Thr-Ser-Pro-Ser)4-NH2; 1-2 mg/mL) and recombinant human CDK7/cyclin H, CDK9/cyclin T1, or CDK9/cyclin K (0.5-2 μg) were incubated for 45 min at 30° C. in the presence of varying amounts of test compound in 20 mM MOPS pH 7.2, 25 mM β-glycerophosphate, 5 mM EGTA, 1 mM DTT, 1 mM sodium vanadate, 15 mM MgCl2, and 100 μM ATP (containing a trace amount of ^32PγATP) in a total volume of 25 μL in a 96-well microtiter plate. The reaction was stopped by placing the plate on ice for 2 min. Avidin (50 μg) was added to each well, and the plate was incubated at room temp for 30 min. The samples were transferred to a 96-well P81 filter plate, and washed (4×200 μL per well) with 75 mM phosphoric acid. Microscint 40 scintillation liquid (50 μL) was added to each well, and the amount of ^32P incorporation for each sample was measured using a Packard Topcount microplate scintillation counter.

CDK9/cyclin T1 = CDK9/cyclin T1 (Homo sapiens, UniProt P50750); assay: CDK 9 assay (CTD peptide substrate); conditions: read-out: Kinase Inhibition pIC50 CDK9-cyclin T1 (converted)
Experimental: as §1, §2

Aurora A kinase = biological target: T1, Aurora A kinase (Homo sapiens, UniProt O14965); assay: Aurora-A (human) kinase assay (Kemptide substrate); conditions: pIC50 is -log(IC50, M); 15 μM ATP; read-out: Kinase Inhibition pIC50 Aurora A kinase (converted)
T1 construct: purchased
T1 sequence (O14965 1-403): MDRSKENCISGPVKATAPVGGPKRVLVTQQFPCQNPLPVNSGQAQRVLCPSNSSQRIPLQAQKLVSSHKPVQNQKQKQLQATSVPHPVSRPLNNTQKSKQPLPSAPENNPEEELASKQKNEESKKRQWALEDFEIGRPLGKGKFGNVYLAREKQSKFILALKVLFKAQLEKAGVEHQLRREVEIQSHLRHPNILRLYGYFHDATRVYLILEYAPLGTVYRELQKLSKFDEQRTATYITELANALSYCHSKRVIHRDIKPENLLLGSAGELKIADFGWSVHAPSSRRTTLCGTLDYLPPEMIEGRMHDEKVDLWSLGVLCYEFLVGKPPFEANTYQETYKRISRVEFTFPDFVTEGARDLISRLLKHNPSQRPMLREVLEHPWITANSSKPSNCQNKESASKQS
Experimental: Aurora-A (human) kinase assay. This was achieved by measurement of incorporation of radioactive phosphate from ATP into Kemptide substrate (LRRASLG), upon phosphorylation by commercially obtained aurora-A kinase. Assays were performed using 96-well plates and appropriate assay buffers (8 mM MOPS, 0.2 mM EDTA, pH 7.0), into which were added 5-10 ng of active enzyme with 200 μM substrate (Kemptide). The reactions were initiated by addition of Mg/ATP mix (10 mM MgAcetate+15 μM ATP with 30-50 kBq per well of [γ-^33P]-ATP) and mixtures incubated for 40 min at room temperature. Reactions were stopped by addition of 3% phosphoric acid, followed by filtration through p81 filterplates (Whatman Polyfiltronics, Kent, UK). After washing 5 times with 75 mM aq orthophosphoric acid and once in methanol, plates were dried, scintillant added and incorporated radioactivity measured in a scintillation counter (TopCount, Packard Instruments, Pangbourne, Berks, UK). Compounds for kinase assay were made up as 10 mM stocks in DMSO and diluted into 10% DMSO in assay buffer.

[1] = biological target: T2, Flt3 (FMS-like tyrosine kinase-3) (Homo sapiens, UniProt P36888); assay: Kinase assay (radioactive phosphate incorporation), Flt3; conditions: pIC50 is -log(IC50, M), read-out: Kinase Inhibition pIC50 Flt3 (converted)
T2 sequence (P36888 27-993): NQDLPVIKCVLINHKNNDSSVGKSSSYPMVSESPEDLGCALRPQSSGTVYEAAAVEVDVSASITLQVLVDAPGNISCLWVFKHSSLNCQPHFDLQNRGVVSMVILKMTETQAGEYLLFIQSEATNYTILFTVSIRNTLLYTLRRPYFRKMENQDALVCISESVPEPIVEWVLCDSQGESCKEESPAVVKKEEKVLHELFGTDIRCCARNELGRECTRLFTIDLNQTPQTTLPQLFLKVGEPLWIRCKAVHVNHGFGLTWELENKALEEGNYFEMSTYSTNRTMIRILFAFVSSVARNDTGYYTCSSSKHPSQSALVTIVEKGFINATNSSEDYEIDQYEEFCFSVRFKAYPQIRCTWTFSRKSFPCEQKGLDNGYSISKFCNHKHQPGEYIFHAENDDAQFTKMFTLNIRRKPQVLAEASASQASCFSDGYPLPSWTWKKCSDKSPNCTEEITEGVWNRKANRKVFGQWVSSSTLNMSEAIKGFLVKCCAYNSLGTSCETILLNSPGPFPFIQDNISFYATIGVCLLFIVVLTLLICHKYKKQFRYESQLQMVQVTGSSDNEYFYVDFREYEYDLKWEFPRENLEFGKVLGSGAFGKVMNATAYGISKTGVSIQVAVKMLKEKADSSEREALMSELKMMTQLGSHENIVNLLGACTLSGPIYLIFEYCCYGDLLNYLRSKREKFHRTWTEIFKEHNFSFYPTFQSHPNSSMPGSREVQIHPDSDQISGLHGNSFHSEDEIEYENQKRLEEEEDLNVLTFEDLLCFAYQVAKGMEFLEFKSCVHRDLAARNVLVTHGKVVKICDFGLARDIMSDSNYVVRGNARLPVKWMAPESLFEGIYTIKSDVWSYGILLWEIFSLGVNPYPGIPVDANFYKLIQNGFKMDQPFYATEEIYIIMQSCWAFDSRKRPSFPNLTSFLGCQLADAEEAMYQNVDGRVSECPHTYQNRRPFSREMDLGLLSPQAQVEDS
Experimental: as §1

CDK2-cycline E = CDK2-cycline E (Homo sapiens, UniProt P24941); assay: Kinase assay (radioactive phosphate incorporation), CDK2-cyclin E; conditions: read-out: Kinase Inhibition pIC50 CDK2-cycline E (converted)
Experimental: as §1

Chain of CDK7/cyclin H (P50613 whole entry): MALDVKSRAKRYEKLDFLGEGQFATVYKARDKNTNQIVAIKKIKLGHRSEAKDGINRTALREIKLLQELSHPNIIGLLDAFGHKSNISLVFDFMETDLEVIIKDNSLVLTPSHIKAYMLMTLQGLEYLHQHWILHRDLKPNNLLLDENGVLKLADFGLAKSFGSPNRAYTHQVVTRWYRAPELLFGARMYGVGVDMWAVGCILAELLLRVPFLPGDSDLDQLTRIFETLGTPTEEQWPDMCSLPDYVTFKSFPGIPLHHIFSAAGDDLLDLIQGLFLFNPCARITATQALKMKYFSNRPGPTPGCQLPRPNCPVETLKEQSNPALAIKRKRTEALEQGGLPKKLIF
Chain of CDK7/cyclin H (P51946 whole entry partner): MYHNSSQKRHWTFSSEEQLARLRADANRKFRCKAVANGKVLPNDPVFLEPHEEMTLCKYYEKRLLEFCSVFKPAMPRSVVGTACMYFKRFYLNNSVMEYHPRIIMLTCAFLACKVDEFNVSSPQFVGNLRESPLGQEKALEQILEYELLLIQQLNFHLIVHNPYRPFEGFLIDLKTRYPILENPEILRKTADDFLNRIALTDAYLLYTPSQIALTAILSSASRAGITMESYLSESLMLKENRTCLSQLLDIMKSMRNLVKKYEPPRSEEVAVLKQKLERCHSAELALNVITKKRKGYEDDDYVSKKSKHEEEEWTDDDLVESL
Chain of CDK9/cyclin T1 (P50750 whole entry): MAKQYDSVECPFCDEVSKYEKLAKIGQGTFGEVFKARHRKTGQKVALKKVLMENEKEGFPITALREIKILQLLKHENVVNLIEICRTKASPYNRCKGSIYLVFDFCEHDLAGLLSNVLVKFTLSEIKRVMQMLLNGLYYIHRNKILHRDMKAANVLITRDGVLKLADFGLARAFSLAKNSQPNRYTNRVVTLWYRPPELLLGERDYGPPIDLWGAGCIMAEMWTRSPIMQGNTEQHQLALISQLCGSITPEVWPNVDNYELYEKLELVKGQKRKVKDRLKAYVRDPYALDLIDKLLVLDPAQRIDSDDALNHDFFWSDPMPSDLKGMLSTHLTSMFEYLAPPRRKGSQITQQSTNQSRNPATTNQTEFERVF
Chain of CDK9/cyclin T1 (O60563 whole entry partner): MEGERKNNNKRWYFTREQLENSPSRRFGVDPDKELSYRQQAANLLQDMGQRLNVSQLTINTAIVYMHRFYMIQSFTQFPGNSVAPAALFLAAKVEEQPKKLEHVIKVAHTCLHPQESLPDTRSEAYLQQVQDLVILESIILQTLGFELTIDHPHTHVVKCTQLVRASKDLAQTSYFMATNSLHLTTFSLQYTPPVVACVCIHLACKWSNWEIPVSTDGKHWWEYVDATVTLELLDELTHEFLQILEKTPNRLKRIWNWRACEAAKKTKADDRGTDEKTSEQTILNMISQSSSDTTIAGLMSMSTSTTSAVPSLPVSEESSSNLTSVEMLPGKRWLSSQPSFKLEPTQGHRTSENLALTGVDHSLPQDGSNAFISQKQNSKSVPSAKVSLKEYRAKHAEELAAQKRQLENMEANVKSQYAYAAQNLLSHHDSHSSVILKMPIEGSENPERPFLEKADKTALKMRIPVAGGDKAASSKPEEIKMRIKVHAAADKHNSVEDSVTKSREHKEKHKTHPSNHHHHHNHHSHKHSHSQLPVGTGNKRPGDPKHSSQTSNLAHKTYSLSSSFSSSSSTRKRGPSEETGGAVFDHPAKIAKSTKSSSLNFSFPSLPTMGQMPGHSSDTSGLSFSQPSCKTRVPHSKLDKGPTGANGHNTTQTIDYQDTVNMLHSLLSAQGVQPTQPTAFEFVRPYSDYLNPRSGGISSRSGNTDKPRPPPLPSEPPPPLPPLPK

SMILES	IC50 (CDK7/cyclin H)	IC50 (CDK9/cyclin T1)	IC50 (Aurora A kinase)	IC50 [1]	IC50 (CDK2-cycline E)
CNc1nc(C)c(-c2ccnc(Nc3cccc(S(=O)(=O)Nc4cccc(OC)c4)c3)n2)s1 [Compound 32, N-(3-Methoxy-phenyl)-3-[4-(4-methyl-2-methylamino-thiazol-5-yl)-pyrimidin-2-ylamino]-benzenesulfonamide]	5010 nM	2510 nM	12.6 nM		
CC(=O)N1CCN(c2ccc(Nc3nccc(-c4sc(N(C)Cc5ccccc5)nc4C)n3)cc2)CC1 [Compound 122, 1-[4-(4-{4-[2-(Benzyl-methyl-amino)-4-methyl-thiazol-5-yl]-pyrimidin-2-ylamino}-phenyl)-piperazin-1-yl]-ethanone]	1580 nM	1260 nM	200 nM		2000 nM
Cc1nc(C)c(-c2ccnc(Nc3cccc(CN4CCOCC4)c3)n2)s1 [Compound 150, [4-(2,4-Dimethyl-thiazol-5-yl)-pyrimidin-2-yl]-(3-morpholin-4-ylmethyl-phenyl)-amine]			158 nM	126 nM	1260 nM
COc1cc(Nc2nccc(-c3sc(-c4cccnc4)nc3C)n2)cc(OC)c1OC [Compound 154, [4-(4-Methyl-2-pyridin-3-yl-thiazol-5-yl)-pyrimidin-2-yl]-(3,4,5-trimethoxy-phenyl)-amine]			79.4 nM	100 nM	
COc1cc(Nc2nccc(-c3sc(-c4cccnc4)nc3C)n2)ccc1N1CCOCC1 [Compound 156, (3-Methoxy-4-morpholin-4-yl-phenyl)-[4-(4-methyl-2-pyridin-3-yl-thiazol-5-yl)-pyrimidin-2-yl]-amine]			100 nM	100 nM	
COc1cc(Nc2nccc(-c3sc(C)nc3C)n2)ccc1N1CCOCC1 [Compound 173, [4-(2,4-Dimethyl-thiazol-5-yl)-pyrimidin-2-yl]-(3-methoxy-4-morpholin-4-yl-phenyl)-amine]	3160 nM	3160 nM	39.8 nM		794 nM
Cc1nc(C)c(-c2ccnc(Nc3ccc(N4CCN(CC(=O)NC(C)C)CC4)cc3)n2)s1 [Compound 190, 2-(4-{4-[4-(2,4-Dimethyl-thiazol-5-yl)-pyrimidin-2-ylamino]-phenyl}-piperazin-1-yl)-N-isopropyl-acetamide]	7940 nM	2510 nM	63.1 nM		1000 nM
Cc1nc(CO)sc1-c1ccnc(Nc2ccc(N3CCCCC3)cc2)n1 [Compound 197, {4-Methyl-5-[2-(4-piperidin-1-yl-phenylamino)-pyrimidin-4-yl]-thiazol-2-yl}-methanol]	7940 nM	3160 nM	100 nM		2510 nM
COc1cc(Nc2nccc(-c3sc(CO)nc3C)n2)ccc1N1CCCCC1 [Compound 216, {5-[2-(3-Methoxy-4-piperidin-1-yl-phenylamino)-pyrimidin-4-yl]-4-methyl-thiazol-2-yl}-methanol]	1580 nM	631 nM	63.1 nM		1580 nM

Continued, values first:

IC50 (CDK7/cyclin H)	IC50 (CDK9/cyclin T1)	IC50 (Aurora A kinase)	IC50 [1]	IC50 (CDK2-cycline E)	SMILES
			200 nM		Cc1nc(C)c(-c2ccnc(Nc3cc(CO)cc(CO)c3)n2)s1 [Compound 47, {3-[4-(2,4-Dimethyl-thiazol-5-yl)-pyrimidin-2-ylamino]-5-hydroxymethyl-phenyl}-methanol]
126 nM	1580 nM	316 nM		1260 nM	Cc1nc(C)c(-c2ccnc(Nc3ccc(N4CCN(Cc5ccccc5)CC4)cc3)n2)s1 [Compound 114, [4-(4-Benzyl-piperazin-1-yl)-phenyl]-[4-(2,4-dimethyl-thiazol-5-yl)-pyrimidin-2-yl]-amine]
3160 nM	2000 nM	31.6 nM		794 nM	CCN(C)c1nc(C)c(-c2ccnc(Nc3ccc(N4CCOCC4)cc3)n2)s1 [Compound 120, {4-[2-(Ethyl-methyl-amino)-4-methyl-thiazol-5-yl]-pyrimidin-2-yl}-(4-morpholin-4-yl-phenyl)-amine]
2510 nM	1000 nM	39.8 nM		794 nM	COc1cc(Nc2nccc(-c3sc(N)nc3C)n2)ccc1N1CCOCC1 [Compound 182, [4-(2-Amino-4-methyl-thiazol-5-yl)-pyrimidin-2-yl]-(3-methoxy-4-morpholin-4-yl-phenyl)-amine]
1580 nM	398 nM	39.8 nM		794 nM	Cc1nc(N)sc1-c1ccnc(Nc2ccc(N3CCCCC3)cc2)n1 [Compound 195, [4-(2-Amino-4-methyl-thiazol-5-yl)-pyrimidin-2-yl]-(4-piperidin-1-yl-phenyl)-amine]
6310 nM	2000 nM	158 nM		2510 nM	Cc1nc(N)sc1-c1ccnc(Nc2ccc(N3CCOCC3)c(C(N)=O)c2)n1 [Compound 211, 5-[4-(2-Amino-4-methyl-thiazol-5-yl)-pyrimidin-2-ylamino]-2-morpholin-4-yl-benzamide]
7940 nM	3980 nM	50.1 nM		1260 nM	Cc1cc(Nc2nccc(-c3sc(CO)nc3C)n2)ccc1N1CCOCC1 [Compound 217, {4-Methyl-5-[2-(3-methyl-4-morpholin-4-yl-phenylamino)-pyrimidin-4-yl]-thiazol-2-yl}-methanol]
